Values of other authors as cited in patent publication US20070224228A1, “Soap Bars Having Ultraviolet Radiation Protection” (priority 2004, published 2007).

Conditions: partition coefficient; solvents octanol and water; values printed as approximate (˜)

Row | Compound | Log P
1 | CCCCC(CC)COC(=O)C(C#N)=C(c1ccccc1)c1ccccc1 (centres unmarked) [Octocrylene] | ~6.9
2 | Cyclomethicone | ~5.7
